The values below come from patent US11311576B2, “Methods of use for CAR T cells” (Seattle Children's Hospital, priority 2018, dated 2022).

The target in one series is T1, FRα (KB) (Homo sapiens, UniProt P15328).
T1 construct: endogenous in cells; host or cells: KB cells (human cervical carcinoma with HeLa markers)
Nature of the series: 3H-EC17 cell-based radioligand binding assay, KB cells. The following applies: 2 h at 37° C. On the procedure:
The bispecific affinities of EC17 CAM were assessed using ^3H-EC17 in cell-based radioligand binding assays. For binding to FR+ targets, KB and CHO-β cells were pre-seeded overnight in 24-well tissue culture plates and incubated with 0.1, 0.5, 1, 5, 10, 20, and 40 nM of ^3H-EC17 in FFRPMI for 2 h at 37° C. Afterwards, the cells were rinsed with phosphate-buffered saline (PBS, pH 7.4) and lysed with 1% sodium dodecylsulfate. The whole cell lysates were quantitated for the level of radioactivity and cellular protein content by standard Pierce BCA protein assay. The number of ^3H-EC17 molecules bound per cell was calculated to determine the dissociation constants (Kd) for FRα (KB) and FRβ (CHO-b) respectively (FIG. 56A, FIG. 56B).

For the next series, the system named is MDA-MB-231. Description: CAR-T cell activation markers (CD69, CD137, PD1) after 24 h co-culture with EC17-preloaded targets. The format is cell-based, human. Particulars: targets preloaded with 100 nM EC17 30 min, E/T 1:1, 24 hours. The method, then: (§1) To study CAR-T cell activation in the presence of FR+ tumor cell targets (FIG. 53), co-culture experiments were initially carried out with MDA-MB-231, THP1-FRβ and HOS-FRα. […] After 24 hours of co-culture, the surface expression of T cell activation markers CD69, CD137 (4-1BB), and PD1 were analyzed by flow cytometry. For T cell exhaustion studies (FIG. 54), FR+(KB, MDA-MB-231, HOS-FRα^fLuc, THP1-FRβ) and FR-negative (HOS-143b^fLuc, THP1-FG12) tumor cell lines were used as targets. Here, target cells were incubated on day 0 without or with 0.1 and 10 nM of EC17 for 30 min at 37° C. and the status of EC17 “pre-loading” was assessed by counterstaining cell-surface EC17 with an anti-FITC antibody (FIG. 61A). Three days later, the surface expression of PD1, LAG3, and TIM3 inhibitor receptors on co-cultured CAR-T cells were analyzed and higher frequencies of double- and triple-positive cells were considered approaching an exhausted phenotype.
(§2) To examine antigen-dependent CAR-T cell activation, MDA-MB-231, THP1-FRβ and HOS-FRα cells were preloaded with 100 nM EC17 over 30 min. […] After 24 hours of co-culture, we measured the surface expression of T cell activation markers CD69, CD137 (4-1BB) and PD1 (FIG. 53). […] Importantly, the mock controls T cells were not activated under these conditions. Some FR+ tumor types (e.g. KB) display a natural resistance to killing by EC17-directed CAR T cells (FIGS. 56, 58, 59, and 60), we studied T cell activation versus exhaustion as a mechanism of EC17 CAM action. Both FR+(KB, MDA-MB-231, HOS-FRα^fLuc, THP1-FRβ) and FR-negative (HOS-143b^fLuc, THP1-FG12) tumor cell lines were chosen for this purpose. HOS-FRα^fLuc expressed ˜5.6× lower level of functional FR than its parent HOS-FRα, and HOS-143b^fLuc was FR-negative similar to HOS-143b (FIG. 59A). […] Three days later, co-cultured CAR-T cells were measured for upregulation and co-expression of T cell activation/exhaustion markers PD1, LAG3 and TIM3. […]

For the next series, the system named is THP1-FRb. The description is as above. The following applies: targets preloaded with 100 nM EC17 30 min, E/T 1:1, 24 hours. The class given is cell-based, human. On the procedure: as §1, §2
Another series relates to HOS-FRα. The description is as above. The format is cell-based, human. The following applies: targets preloaded with 100 nM EC17 30 min, E/T 1:1, 24 hours. On the procedure:
as §1, §2

Another series has as its system MDA-MB-231 tumor. Nature of the series: Kinetics of CAR-T cell expansion and tumor uptake in MDA-MB-231 tumor bearing mice. The class given is in vivo, NSG mice. On the procedure:
When the tumor sizes averaged at ˜350±60 mm^3 on day 2, up to […] of EC17 at 500 nmol/kg were given on days 2, 9, 16, 23, and 30. For ex-vivo analysis, 3 animals were taken before the next EC17 dose on days 9, 16, 23, and 30 for a total of 4 collections. For comparison, the same EC17 dose was given to 3 CAR-T mice that had ˜4.4× larger tumor sizes on day 2 (˜1555±79 mm3). For each collection, fresh blood and tumor samples (if available) were analyzed for the presence of human CD3e+ EGFRt+ CAR-T cells by flow cytometry.
For CAR-T cell analysis in the circulation, plasma was removed from a predetermined volume of whole blood collected into tubes containing ethylenediaminetetraacetic acid anticoagulant. […] A minimum of 20,000 propidium iodide negative live cell events were collected on the Gallios flow cytometer and analyzed with the Kaluza software, version 2.1 (Beckman Coulter, Brea, Calif.). CAR-positive T cells were identified in mouse blood as human CD3e+ EGFRt+ events and absolute numbers per volume of blood were calculated using equal numbers of CountBright™ beads (Invitrogen, Carlsbad, Calif.) added to each sample. The number of tumor-infiltrating CD3ε+ EGFRt+ CAR-T cells was expressed as % total viable tumor cells analyzed.

pKd: −log10 of the molar value.

T1 sequence (P15328 25-234): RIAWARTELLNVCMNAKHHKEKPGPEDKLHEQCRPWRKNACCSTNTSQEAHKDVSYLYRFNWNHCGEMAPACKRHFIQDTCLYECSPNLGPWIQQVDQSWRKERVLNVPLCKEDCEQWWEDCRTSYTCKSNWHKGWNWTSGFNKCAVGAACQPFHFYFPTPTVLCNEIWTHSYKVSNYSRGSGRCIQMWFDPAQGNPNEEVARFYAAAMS

As to `NC1=NC2N=CC(CNc3ccc(C(=O)N[C@@H](CCC(=O)NCCNC(=S)Nc4ccc(-c5c6ccc(=O)cc-6oc6cc(O)ccc56)c(C(=O)O)c4)C(=O)O)cc3)=NC2C(=O)N1` (stereo partly drawn) [EC17, FA-(g)-ethylenediamine-FITC], the pKd at FRα (KB) is 8.77. For the same molecule, the “CAR-T cell activation (CD69, CD137, PD1)” value with MDA-MB-231 is “strong activators of our CAR-T cells”; in the series with THP1-FRb, “did trigger CAR-T cell activation, but at lower levels”; in the series on HOS-FRα, “strong activators of our CAR-T cells”. For the same molecule, in the series on MDA-MB-231 tumor (~4.8 million E2-CAR-T cells, after EC17 administration, especially third dose), the body weight loss result was “mild body weight loss”. The tumor response result in the series with MDA-MB-231 tumor (~4.8 million EGFRt-sorted E2-CAR-T cells, weekly EC17 500 nmol/kg) is recorded as “started to respond after the second EC17 dose”.

As usually defined, the pKd is the Kd on a negative log10 scale, so that one unit is a factor of ten.
